From patent publication US20080319065A1, “Systemic and Intrathecal Effects of a Novel Series of Phospholipase A2 Inhibitors on Hyperalgesia and Spinal Pge2 Release” (The Regents of the University of California, priority 2005, published 2008)

Experiments:
[1] = biological target: T1, Group VIA iPLA2 (GVIA PLA2) (Homo sapiens, UniProt O60733); test: In vitro Group VIA iPLA2 mixed micelle assay; assay type: biochemical
T1 sequence (O60733 1-806): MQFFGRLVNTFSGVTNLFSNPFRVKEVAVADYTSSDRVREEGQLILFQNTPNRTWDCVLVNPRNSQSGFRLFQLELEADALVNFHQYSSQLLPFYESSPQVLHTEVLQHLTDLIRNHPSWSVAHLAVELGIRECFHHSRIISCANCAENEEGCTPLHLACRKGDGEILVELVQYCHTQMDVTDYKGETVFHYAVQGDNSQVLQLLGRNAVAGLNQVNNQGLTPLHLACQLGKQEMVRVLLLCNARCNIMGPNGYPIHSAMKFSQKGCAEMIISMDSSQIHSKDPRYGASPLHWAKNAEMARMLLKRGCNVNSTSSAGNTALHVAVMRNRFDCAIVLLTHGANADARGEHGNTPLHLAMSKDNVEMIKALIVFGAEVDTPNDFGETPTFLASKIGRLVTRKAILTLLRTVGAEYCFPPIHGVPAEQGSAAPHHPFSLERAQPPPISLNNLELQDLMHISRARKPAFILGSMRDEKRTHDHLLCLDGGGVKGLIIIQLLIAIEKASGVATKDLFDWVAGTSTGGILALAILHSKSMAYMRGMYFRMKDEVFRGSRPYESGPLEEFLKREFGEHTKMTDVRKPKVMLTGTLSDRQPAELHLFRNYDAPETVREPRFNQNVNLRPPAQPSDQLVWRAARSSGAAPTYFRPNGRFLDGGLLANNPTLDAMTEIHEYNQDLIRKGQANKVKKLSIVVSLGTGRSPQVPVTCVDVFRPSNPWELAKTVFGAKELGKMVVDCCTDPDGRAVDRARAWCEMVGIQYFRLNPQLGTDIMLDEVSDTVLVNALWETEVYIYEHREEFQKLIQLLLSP

spinal release of PGE2 = test: Intrathecal dialysis and PGE2 assay; assay type: in vivo, rat; details: 3 mg/kg IP pretreatment
From the text: For spinal drug injections, lumbar catheters were implanted in rats under isoflurane anesthesia according to a modification of the procedure described by Yaksh (Yaksh and Rudy, supra, 1976). A polyethylene catheter (PE-5; Spectranetics, 0.014 in OD) was inserted into the intrathecal space and advanced to the rostral edge of the lumbar enlargement through an incision in the atlanto-occipital membrane. Five days after implantation rats were entered into the study. In separate experiments to assess spinal prostaglandins release, rats were prepared with lumbar loop dialysis catheters with three lumens, as previously described, see (Yaksh, et al., supra, 2001).
In brief, the outer two lumens were connected to a length of dialysis tubing (10 Kda cut off). The catheter was then implanted intrathecally using the same technique as described above for the intrathecal catheter. A three-day interval was allowed to elapse prior to including the animal in a study. In all cases, the exclusion criteria were i) presence of any neurological sequelae, ii) 20% weight loss after implantation, or iii) catheter occlusion.
Spinal dialysis experiments to define the spinal release of PGE2 were conducted in unanesthetized rats 3 days after dialysis catheter implantation. A syringe pump (Harvard, Natick, Mass.) was connected and dialysis tubing was perfused with artificial cerebro spinal fluid (ACSF) at a rate of 10 μl/min. The ACSF contained (mM) 151.1 Na^+, 2.6 K^+, 0.9 Mg^2+, 1.3 Ca^2+, 122.7 Cl^−, 21.0 HCO3, 2.5 HPO4 and 3.5 dextrose and was bubbled with 95% O2/5% CO2 before each experiment to adjust the final pH to 7.2. The efflux (20 min per fraction) was collected in an automatic fraction collector (Eicom, Kyoto, Japan) at 4° C. […] The concentration of PGE2 in spinal dialysate was measured by ELISA using a commercially available kit (Assay Designs 90001, Assay Designs, Ann Arbor, Mich.). The antibody is selective for PGE2 with less than 2.0% cross-reactivity to PGF1, PGF2, 6-ketoPGF1, PGA2 or PGB2, but cross-reacts with PGE1 and PGE3.

SMILES	Group VIA XI(50) (mole fraction) ([1]; Table 1b)	IT SP-evoked release of PGE2 in spinal dialysate (spinal release of PGE2)	inhibition of GVIA PLA2 (iPLA2), in words [1]	Group VIA XI(50), class ([1]; at 0.091 mole fraction)	Inhibition of GVIA PLA2 ([1]; at highest dose)
CCCCCCCCCCCCCCC(=O)C(=O)NCCCC(=O)OCC [AX048, Ethyl 4-[(2-oxohexadecanoyl)amino]butanoate]	0.027 ± 0.009 mole fraction	significant inhibitory effect upon PGE2 synthesis and release			
CCC(=O)C(=O)NCCCC(=O)OC [AX010]		significant increase as compared to vehicle only	limited inhibition of GVIA PLA2	L.D. (between 25% and 50% inhibition at 0.091 mole fraction)	LD (limited inhibition (25-50%) at highest dose)
